According to ChEMBL document CHEMBL3862010, “N-Arylsulfonyl-α-amino carboxamides are potent and selective inhibitors of the chemokine receptor CCR10 that show efficacy in the murine DNFB model of contact hypersensitivity” (Bioorg Med Chem Lett, 2016):
Values belong to the compound of their own block, whether it stands above or below them.

Legend:
[1] = target: T1, C-C chemokine receptor type 10 (Homo sapiens, UniProt P46092); experiment: Antagonist activity at human CCR10 expressed in CHOK1 cells coexpressing aequorin/Galphaq assessed as inhibition of human CCL28-dependent calcium flux by FLIPR assay; type: functional, cell-based, CHO-K1
T1 sequence (P46092 whole entry): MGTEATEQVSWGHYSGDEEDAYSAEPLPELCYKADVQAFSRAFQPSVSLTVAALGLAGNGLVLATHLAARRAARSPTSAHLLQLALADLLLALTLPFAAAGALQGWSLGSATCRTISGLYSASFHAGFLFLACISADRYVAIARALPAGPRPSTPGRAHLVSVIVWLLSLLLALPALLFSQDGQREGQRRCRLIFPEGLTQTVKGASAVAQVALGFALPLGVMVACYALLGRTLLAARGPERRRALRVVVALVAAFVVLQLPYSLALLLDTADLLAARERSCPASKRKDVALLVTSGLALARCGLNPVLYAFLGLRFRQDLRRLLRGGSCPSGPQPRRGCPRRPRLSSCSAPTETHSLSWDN

[2] = target: T1, C-C chemokine receptor type 10; experiment: Antagonist activity at human CCR10 expressed in HEK cell membranes assessed as inhibition of human CCL27-dependent europium-labeled GTP binding; design: species or system HEK293
[3] = target: T1, C-C chemokine receptor type 10; experiment: Antagonist activity at human CCR10 expressed in CHOK1 cells coexpressing aequorin/Galphaq assessed as inhibition of human CCL28-dependent calcium flux by chemiluminescence assay; type: functional, cell-based, CHO-K1
[4] = target: C-X-C chemokine receptor type 2 (Homo sapiens, UniProt P25025); experiment: Antagonist activity at human CXCR2 assessed as inhibition of GROalpha-induced calcium flux; type: functional
[5] = target: T1, C-C chemokine receptor type 10; experiment: Antagonist activity at human CCR10 expressed in CHOK1 cells coexpressing aequorin/Galphaq assessed as inhibition of CCL27-dependent calcium flux in presence of coelenterazine H by FLIPR assay; type: functional, cell-based, CHO-K1
[6] = Clearance in mouse liver microsomes relative to hepatic blood flow; type: ADME; conditions: read-out: CLH
[7] = target: T2, C-C chemokine receptor type 10 (Mus musculus, UniProt Q9JL21); experiment: Antagonist activity at mouse CCR10 expressed in CHOK1 cells coexpressing aequorin/Galphaq assessed as inhibition of CCL27-dependent calcium flux in presence of coelenterazine H by chemiluminescence assay; type: functional, cell-based, CHO-K1
T2 sequence (Q9JL21 whole entry): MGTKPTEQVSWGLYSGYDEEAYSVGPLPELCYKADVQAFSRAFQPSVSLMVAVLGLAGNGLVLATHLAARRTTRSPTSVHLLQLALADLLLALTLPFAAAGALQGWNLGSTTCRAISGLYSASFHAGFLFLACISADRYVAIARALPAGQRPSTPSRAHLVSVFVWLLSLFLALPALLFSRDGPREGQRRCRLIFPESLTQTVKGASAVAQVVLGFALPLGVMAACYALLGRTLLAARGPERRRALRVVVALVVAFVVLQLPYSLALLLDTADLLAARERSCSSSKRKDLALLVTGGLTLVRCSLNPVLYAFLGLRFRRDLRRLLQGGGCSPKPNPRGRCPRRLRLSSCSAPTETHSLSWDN

[8] = target: C-C chemokine receptor type 1 (Homo sapiens, UniProt P32246); experiment: Antagonist activity at human CCR1 assessed as inhibition of MIP1alpha-induced calcium flux; type: functional
[9] = target: C-C chemokine receptor type 5 (Homo sapiens, UniProt P51681); experiment: Antagonist activity at human CCR5 assessed as inhibition of RANTES-induced calcium flux; type: functional
[10] = target: T1, C-C chemokine receptor type 10; experiment: Antagonist activity at human CCR10 expressed in CHOK1 cells coexpressing aequorin/Galphaq assessed as inhibition of human CCL27-dependent calcium flux in presence of coelenterazine H by chemiluminescence assay; type: functional, cell-based, CHO-K1; conditions: read-out: pIC50 (converted)
[11] = target: T1, C-C chemokine receptor type 10; experiment: Antagonist activity at human CCR10 expressed in HEK cells assessed as inhibition of human CCL27-dependent cAMP production; type: functional, cell-based, HEK293
[12] = Half life in mouse liver microsomes; type: ADME
[13] = target: C-C chemokine receptor type 2 (Homo sapiens, UniProt P41597); experiment: Antagonist activity at human CCR2 assessed as inhibition of MCP1-induced calcium flux; type: functional
[14] = target: C-X-C chemokine receptor type 3 (Homo sapiens, UniProt P49682); experiment: Antagonist activity at human CXCR3 assessed as inhibition of IP10-induced calcium flux; type: functional
Histamine H4 receptor = Histamine H4 receptor (Homo sapiens, UniProt Q9H3N8); experiment: Antagonist activity at human histamine H4 receptor assessed as inhibition of histamine-induced calcium flux; type: functional
Rattus norvegicus [15] = species on record: Rattus norvegicus; experiment: Binding affinity to rat 5-HT1 receptor at 10 uM relative to control
[16] = target: T1, C-C chemokine receptor type 10; experiment: Displacement of human CCL27-Fc from CCR10 expressed in HEK cell membranes by immunochemical binding analysis; design: species or system HEK293
[17] = target: C-C chemokine receptor type 6 (Homo sapiens, UniProt P51684); experiment: Antagonist activity at human CCR6 assessed as inhibition of CCL20/MIP-3alpha-induced calcium flux; type: functional
[18] = target: 5-hydroxytryptamine receptor 3A (Homo sapiens) (UniProt P46098); experiment: Binding affinity to human 5-HT3 receptor at 10 uM relative to control
[19] = target: D(2) dopamine receptor (Homo sapiens) (UniProt P14416); experiment: Binding affinity to human dopamine D2L receptor at 10 uM relative to control
Homo sapiens [20] = species on record: Homo sapiens; experiment: Binding affinity to human dopamine D4.2 receptor at 10 uM relative to control
[21] = target: Type-1 angiotensin II receptor (Homo sapiens) (UniProt P30556); experiment: Binding affinity to human AT1 receptor at 10 uM relative to control
Rattus norvegicus [22] = species on record: Rattus norvegicus; experiment: Binding affinity to rat GABA-B receptor at 10 uM relative to control
[23] = target: 5-hydroxytryptamine receptor 2A (Rattus norvegicus) (UniProt P14842); experiment: Binding affinity to rat 5-HT2 receptor at 10 uM relative to control
Rattus norvegicus [24] = species on record: Rattus norvegicus; experiment: Binding affinity to rat muscarinic acetylcholine receptor at 10 uM relative to control
[25] = target: Histamine H2 receptor (Homo sapiens) (UniProt P25021); experiment: Binding affinity to human histamine H2 receptor at 10 uM relative to control
[26] = target: D(1A) dopamine receptor (Homo sapiens) (UniProt P21728); experiment: Binding affinity to human dopamine D1 receptor at 10 uM relative to control
[27] = target: Calcitonin gene-related peptide type 1 receptor (Homo sapiens) (UniProt Q16602); experiment: Binding affinity to human CGRP1 receptor at 10 uM relative to control
[28] = target: Adrenergic receptor alpha-2 (Rattus norvegicus) (UniProt P22086+P19328+P22909); experiment: Binding affinity to rat adrenergic alpha2 receptor at 10 uM relative to control
[29] = target: 5-hydroxytryptamine receptor 4 (Cavia porcellus) (UniProt O70528); experiment: Binding affinity to guinea pig 5-HT4 receptor at 10 uM relative to control
[30] = target: B2 bradykinin receptor (Homo sapiens) (UniProt P30411); experiment: Binding affinity to human B2 bradykinin receptor at 10 uM relative to control
[31] = target: T1, C-C chemokine receptor type 10; experiment: Reversible inhibition of human CCL27-Fc binding to CCR10 expressed in HEK cell membranes by immunochemical binding assay; design: species or system HEK293
[32] = target: Histamine H1 receptor (Homo sapiens) (UniProt P35367); experiment: Binding affinity to human histamine H1 receptor at 10 uM relative to control
[33] = target: D(3) dopamine receptor (Homo sapiens) (UniProt P35462); experiment: Binding affinity to human dopamine D3 receptor at 10 uM relative to control
Homo sapiens [34] = species on record: Homo sapiens; experiment: Binding affinity to human nicotinic acetylcholine receptor at 10 uM relative to control
[35] = target: Adrenergic receptor alpha-1 (Rattus norvegicus) (UniProt P15823+P23944+P43140); experiment: Binding affinity to rat adrenergic alpha1 receptor at 10 uM relative to control
[36] = target: Adrenergic receptor beta (Rattus norvegicus) (UniProt P18090+P10608+P26255); experiment: Binding affinity to rat adrenergic beta receptor at 10 uM relative to control
[37] = Protein binding in Balb/C mouse plasma at 100 mg/kg, ip bid; type: ADME, organism-based; conditions: Balb/C, plasma, read-out: PPB
[38] = Plasma concentration in Balb/C mouse at 100 mg/kg, ip bid measured after 7 hrs; type: ADME, organism-based
[39] = Time at which plasma concentration stays near or above in vitro murine IC50 level in Balb/C mouse at 100 mg/kg, ip bid; type: ADME, organism-based; conditions: in vivo
[40] = Plasma concentration in Balb/C mouse at 100 mg/kg, ip bid measured after 1 hr; type: ADME, organism-based; conditions: in vivo
[41] = Plasma concentration in Balb/C mouse at 30 mg/kg, ip bid measured after 1 hr; type: ADME, organism-based; conditions: Balb/C, plasma
Mus musculus = experiment: Antiinflammatory activity in Balb/C mouse model of contact hypersensitivity assessed as inhibition of DNFB-stimulated ear swelling at 100 mg/kg, ip bid administered at 0 and 8 hrs measured 24 hrs post DNFB stimulation; type: functional

Sequence of C-C chemokine receptor type 6 (P51684 whole entry): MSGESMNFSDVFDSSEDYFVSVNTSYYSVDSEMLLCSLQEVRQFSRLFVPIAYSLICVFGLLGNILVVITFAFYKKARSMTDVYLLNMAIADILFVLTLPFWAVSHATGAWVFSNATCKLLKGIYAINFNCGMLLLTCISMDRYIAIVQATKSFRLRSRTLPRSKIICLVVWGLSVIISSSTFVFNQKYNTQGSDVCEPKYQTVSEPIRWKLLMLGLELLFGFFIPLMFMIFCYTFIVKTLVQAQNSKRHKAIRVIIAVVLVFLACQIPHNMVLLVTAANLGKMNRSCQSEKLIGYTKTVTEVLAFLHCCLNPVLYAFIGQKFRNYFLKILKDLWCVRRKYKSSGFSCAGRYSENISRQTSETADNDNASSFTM
Sequence of C-C chemokine receptor type 5 (P51681 whole entry): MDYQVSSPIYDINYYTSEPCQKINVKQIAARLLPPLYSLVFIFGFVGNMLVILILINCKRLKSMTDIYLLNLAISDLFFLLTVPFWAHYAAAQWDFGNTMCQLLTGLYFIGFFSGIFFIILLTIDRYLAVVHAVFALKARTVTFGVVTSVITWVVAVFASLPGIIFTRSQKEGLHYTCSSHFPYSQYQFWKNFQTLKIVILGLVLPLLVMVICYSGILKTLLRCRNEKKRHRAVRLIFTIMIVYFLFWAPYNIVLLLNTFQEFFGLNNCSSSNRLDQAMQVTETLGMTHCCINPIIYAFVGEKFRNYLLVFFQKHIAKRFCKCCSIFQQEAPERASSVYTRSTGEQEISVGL
Sequence of C-C chemokine receptor type 1 (P32246 whole entry): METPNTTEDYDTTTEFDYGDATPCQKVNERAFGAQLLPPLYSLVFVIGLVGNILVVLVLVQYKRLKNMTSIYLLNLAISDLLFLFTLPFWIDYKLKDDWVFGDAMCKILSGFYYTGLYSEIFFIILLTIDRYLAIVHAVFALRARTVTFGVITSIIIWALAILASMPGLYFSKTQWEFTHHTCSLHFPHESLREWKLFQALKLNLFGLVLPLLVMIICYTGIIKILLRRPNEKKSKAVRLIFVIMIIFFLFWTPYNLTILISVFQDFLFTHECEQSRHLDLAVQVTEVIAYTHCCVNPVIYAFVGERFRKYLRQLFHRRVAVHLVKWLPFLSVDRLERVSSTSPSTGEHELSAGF
Sequence of C-X-C chemokine receptor type 2 (P25025 whole entry): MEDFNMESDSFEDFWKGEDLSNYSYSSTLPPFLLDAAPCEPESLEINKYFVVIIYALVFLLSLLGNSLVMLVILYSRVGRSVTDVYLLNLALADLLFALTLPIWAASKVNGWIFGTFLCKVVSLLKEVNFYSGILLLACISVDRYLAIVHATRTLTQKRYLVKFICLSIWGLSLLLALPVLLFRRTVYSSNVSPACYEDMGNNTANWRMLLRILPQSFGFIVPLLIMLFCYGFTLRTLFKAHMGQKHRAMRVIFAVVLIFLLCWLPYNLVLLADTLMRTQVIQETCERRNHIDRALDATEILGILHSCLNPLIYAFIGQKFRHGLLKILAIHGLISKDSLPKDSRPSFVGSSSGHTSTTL
Sequence of C-X-C chemokine receptor type 3 (P49682 whole entry): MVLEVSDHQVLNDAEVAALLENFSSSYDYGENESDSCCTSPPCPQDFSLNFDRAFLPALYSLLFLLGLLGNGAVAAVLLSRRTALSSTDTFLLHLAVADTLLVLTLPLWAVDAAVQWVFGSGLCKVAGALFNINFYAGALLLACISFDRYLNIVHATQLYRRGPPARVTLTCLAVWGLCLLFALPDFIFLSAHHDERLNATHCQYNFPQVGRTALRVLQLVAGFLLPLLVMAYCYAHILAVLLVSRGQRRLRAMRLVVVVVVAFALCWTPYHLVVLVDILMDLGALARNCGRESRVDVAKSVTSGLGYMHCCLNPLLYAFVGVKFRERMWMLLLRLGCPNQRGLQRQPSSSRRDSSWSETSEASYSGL
Sequence of C-C chemokine receptor type 2 (P41597 whole entry): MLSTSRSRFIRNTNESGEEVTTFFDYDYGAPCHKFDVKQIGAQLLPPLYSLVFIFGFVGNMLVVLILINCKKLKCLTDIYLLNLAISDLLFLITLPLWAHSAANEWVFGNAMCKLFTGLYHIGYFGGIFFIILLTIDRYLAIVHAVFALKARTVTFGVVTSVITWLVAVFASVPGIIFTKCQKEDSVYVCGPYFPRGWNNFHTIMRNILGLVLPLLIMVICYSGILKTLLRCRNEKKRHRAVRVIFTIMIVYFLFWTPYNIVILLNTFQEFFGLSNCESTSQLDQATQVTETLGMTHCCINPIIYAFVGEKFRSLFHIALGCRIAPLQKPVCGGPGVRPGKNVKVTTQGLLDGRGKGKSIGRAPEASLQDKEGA
Sequence of 5-hydroxytryptamine receptor 2A (Rattus norvegicus) (P14842 whole entry): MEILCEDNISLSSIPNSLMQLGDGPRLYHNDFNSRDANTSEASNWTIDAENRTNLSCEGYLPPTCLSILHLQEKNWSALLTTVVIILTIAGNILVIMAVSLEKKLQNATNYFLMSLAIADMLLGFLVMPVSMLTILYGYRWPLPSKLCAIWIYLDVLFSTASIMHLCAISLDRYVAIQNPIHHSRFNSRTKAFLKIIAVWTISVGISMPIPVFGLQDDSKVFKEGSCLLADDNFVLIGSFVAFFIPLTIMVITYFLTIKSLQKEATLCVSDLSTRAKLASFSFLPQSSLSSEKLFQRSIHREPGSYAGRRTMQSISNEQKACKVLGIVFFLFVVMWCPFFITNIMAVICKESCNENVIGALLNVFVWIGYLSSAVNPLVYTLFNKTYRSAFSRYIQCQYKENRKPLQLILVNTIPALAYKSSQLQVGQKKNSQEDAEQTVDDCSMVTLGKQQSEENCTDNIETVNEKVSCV
Sequence of D(2) dopamine receptor (Homo sapiens) (P14416 whole entry): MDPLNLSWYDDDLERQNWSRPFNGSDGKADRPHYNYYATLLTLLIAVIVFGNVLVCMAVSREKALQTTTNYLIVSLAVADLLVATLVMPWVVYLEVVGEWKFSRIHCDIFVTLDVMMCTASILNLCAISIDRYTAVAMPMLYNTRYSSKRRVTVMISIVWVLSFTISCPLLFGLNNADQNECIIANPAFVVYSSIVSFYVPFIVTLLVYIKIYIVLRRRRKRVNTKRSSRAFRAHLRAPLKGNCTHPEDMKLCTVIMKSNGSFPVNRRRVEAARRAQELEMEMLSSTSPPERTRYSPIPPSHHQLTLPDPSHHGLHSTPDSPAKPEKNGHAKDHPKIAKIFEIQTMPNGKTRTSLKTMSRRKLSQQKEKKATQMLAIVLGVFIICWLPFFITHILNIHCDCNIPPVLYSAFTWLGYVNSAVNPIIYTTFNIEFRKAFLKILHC
Sequence of B2 bradykinin receptor (Homo sapiens) (P30411 whole entry): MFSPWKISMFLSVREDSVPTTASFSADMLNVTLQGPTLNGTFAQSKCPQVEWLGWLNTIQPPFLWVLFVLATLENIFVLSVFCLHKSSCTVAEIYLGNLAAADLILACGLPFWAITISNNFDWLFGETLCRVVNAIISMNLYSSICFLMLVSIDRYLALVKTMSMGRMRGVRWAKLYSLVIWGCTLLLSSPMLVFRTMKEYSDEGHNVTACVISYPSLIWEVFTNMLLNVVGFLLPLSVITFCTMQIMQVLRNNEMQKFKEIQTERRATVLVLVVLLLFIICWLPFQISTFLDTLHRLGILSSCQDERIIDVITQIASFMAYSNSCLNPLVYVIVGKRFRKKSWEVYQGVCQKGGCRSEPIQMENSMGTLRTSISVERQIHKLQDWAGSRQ
Sequence of Histamine H1 receptor (Homo sapiens) (P35367 whole entry): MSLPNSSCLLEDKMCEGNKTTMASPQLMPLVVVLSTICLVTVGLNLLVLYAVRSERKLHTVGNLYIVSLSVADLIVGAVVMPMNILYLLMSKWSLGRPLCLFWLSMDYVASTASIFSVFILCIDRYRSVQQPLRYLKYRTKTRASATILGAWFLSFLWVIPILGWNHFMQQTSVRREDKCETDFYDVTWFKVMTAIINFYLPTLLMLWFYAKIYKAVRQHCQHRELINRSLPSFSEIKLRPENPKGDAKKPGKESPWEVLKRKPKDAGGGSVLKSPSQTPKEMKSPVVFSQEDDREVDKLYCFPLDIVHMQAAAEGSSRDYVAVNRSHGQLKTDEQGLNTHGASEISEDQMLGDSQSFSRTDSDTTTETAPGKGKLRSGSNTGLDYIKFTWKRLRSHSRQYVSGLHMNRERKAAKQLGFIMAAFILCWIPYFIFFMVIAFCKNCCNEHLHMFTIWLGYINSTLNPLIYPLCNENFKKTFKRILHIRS
Sequence of D(1A) dopamine receptor (Homo sapiens) (P21728 whole entry): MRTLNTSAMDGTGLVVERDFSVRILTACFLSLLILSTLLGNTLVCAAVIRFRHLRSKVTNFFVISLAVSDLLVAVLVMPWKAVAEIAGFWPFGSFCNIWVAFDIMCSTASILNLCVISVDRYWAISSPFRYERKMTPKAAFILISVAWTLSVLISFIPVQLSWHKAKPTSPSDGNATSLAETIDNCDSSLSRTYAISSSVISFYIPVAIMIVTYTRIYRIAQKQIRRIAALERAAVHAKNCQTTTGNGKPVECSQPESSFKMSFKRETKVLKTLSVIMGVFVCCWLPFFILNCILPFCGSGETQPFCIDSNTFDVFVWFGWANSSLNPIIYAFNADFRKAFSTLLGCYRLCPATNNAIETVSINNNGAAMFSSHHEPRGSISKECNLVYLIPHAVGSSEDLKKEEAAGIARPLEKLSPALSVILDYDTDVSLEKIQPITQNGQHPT
Sequence of 5-hydroxytryptamine receptor 3A (Homo sapiens) (P46098 whole entry): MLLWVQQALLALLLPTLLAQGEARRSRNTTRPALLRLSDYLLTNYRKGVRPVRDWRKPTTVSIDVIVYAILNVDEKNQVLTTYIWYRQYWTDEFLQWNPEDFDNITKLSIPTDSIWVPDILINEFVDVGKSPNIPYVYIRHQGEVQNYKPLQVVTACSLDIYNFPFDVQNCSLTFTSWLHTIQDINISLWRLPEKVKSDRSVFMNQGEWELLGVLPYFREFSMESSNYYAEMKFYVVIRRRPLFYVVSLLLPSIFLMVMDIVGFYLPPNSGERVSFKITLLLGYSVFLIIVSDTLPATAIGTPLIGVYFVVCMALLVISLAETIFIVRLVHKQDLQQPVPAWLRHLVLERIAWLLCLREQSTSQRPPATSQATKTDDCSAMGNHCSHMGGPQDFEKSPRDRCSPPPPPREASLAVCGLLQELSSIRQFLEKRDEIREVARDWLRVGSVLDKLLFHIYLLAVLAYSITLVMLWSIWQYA

- IC50 [1]: 1.26 nM
- IC50 [2]: 10 nM
- IC50 [3]: 1 nM
- IC50 [4]: > 10000 nM
- IC50 [5]: 0.398 nM
- hepatic extraction ratio [6]: > 0.88
- IC50 [7]: 63.1 nM
- IC50 [8]: > 10000 nM
- IC50 [9]: > 10000 nM
- IC50 [10]: 2 nM
- IC50 [11]: 25.1 nM
- half-life [12]: < 3 min
- IC50 [13]: > 10000 nM
- IC50 [14]: > 10000 nM
- IC50 (Histamine H4 receptor): > 10000 nM
Compound: CC1CCN(C(=O)C(CCn2cccc2C#N)NS(=O)(=O)c2cccc3[nH]ccc23)CC1 (racemic)

- Activity (Rattus norvegicus [15]): 11%
- IC50 [1]: 12.6 nM
- IC50 [2]: 20 nM
- IC50 [16]: 3.4 nM
- IC50 [3]: 12.6 nM
- IC50 [4]: > 10000 nM
- IC50 [17]: > 10000 nM
- IC50 [5]: 2 nM
- Activity [18]: < 10%
- IC50 [7]: 1580 nM
- IC50 [8]: > 10000 nM
- Activity [19]: < 10%
- IC50 [9]: > 10000 nM
- Activity (Homo sapiens [20]): < 10%
- Activity [21]: < 10%
- Activity (Rattus norvegicus [22]): 10%
- Activity [23]: < 10%
- Activity (Rattus norvegicus [24]): 11%
- IC50 [10]: 20 nM
- Activity [25]: 12%
- Activity [26]: < 10%
- Activity [27]: < 10%
- IC50 [11]: 158 nM
- Activity [28]: < 10%
- Activity [29]: 28%
- IC50 [13]: > 10000 nM
- Activity [30]: < 10%
- IC50 [31]: 3.4 nM
- Activity [32]: < 10%
- Activity [33]: 11%
- Activity (Homo sapiens [34]): < 10%
- IC50 [14]: > 10000 nM
- IC50 (Histamine H4 receptor): > 10000 nM
- Activity [35]: < 10%
- Activity [36]: 12%
Compound: CC1CCN(C(=O)C(CCn2cccc2C#N)NS(=O)(=O)c2cc(Cl)c(N)c(Cl)c2)CC1 (centres undefined)

- fraction unbound [37]: 0.01
- concentration at 7 h [38]: 0.2 µM
- IC50 [17]: > 10000 nM
- IC50 [7]: 25.1 nM
- IC50 [10]: 1 nM
- Time [39]: <= 8 hr
- concentration [40]: 7.6 µM
- concentration at 1 h [41]: 3.7 µM
Compound: CC1CCN(C(=O)C(CCn2cccc2C#N)NS(=O)(=O)c2cccc3[nH]ccc23)CC1 (stereo in doubt; form 1)
- inhibition in vivo at 100 mg/kg (Mus musculus): 75%
